Experimental data taken from patent US10266549B2, “ULK1 inhibitors and methods using same” (SALK INSTITUTE FOR BIOLOGICAL STUDIES, priority 2014, dated 2019).

How the values were obtained:
endogenous ULK1 = endogenous ULK1 activity in MEFs: mobility shift of Beclin1 and Atg13; assay type: cell-based, mouse; conditions: WT MEFs, 10 μM co-treatment, 1 hr
Method: FIG. 7D: WT or Ulk1/Ulk2 double knockout mouse embryonic fibroblasts (MEFs) were treated with fresh media (Dulbecco's modified Eagle medium [DMEM] containing 10% FBS) containing 1-μM INK128, 1-μM AZD8055, or DMSO or with starvation media (EBSS) in the presence or absence of 10 μM compound 14. Cellular lysates were isolated after 1 hr of treatment and immunoblotted with the indicated antibodies. Asterisk denotes non-specific band.
We next examined whether compound 14 inhibits endogenous ULK1 activity. To activate endogenous ULK1, we treated MEFs with either amino acid starvation media (Earle's balanced salt solution [EBSS]) or the mTOR ATP-competitive inhibitors INK128 or AZD8055. In WT MEFs, we observed a mobility shift in endogenous Beclin1 and Atg13 in response to EBSS starvation media or the mTOR catalytic inhibitors, which was abolished in Ulk1/2-deficient MEFs (FIG. 7D). […] In certain embodiments, the mobility shifts observed in endogenous Beclin1 and Atg13 induced by mTOR inhibitors and starvation media reflect phosphorylation of endogenous Beclin1/Atg13 by endogenous ULK1/2 as they only occur in WT but not Ulk1/2-deficient MEFs.

panel of 456 kinases = assay: DiscoveRx KINOMEscan competition binding assay; set-up: species or system human
Method: FIG. 7E: (top) The kinase selectivity profile for compound 14 was determined using the DiscoveRx KINOMEscan profiling service. Briefly, compound 14 was screened at a 1-μM dose for its ability to impair binding of a panel of 456 kinases to substrate in an in vitro binding assay. Scores for the primary screen hits are reported as a percent of the DMSO control (% Control). Lower scores reflect stronger inhibitory effects of compound 14 on the target kinase. Compound 14 was very selective, only inhibiting 8 kinases >95% and 19 kinases >90% when tested at 10 μM. (bottom) In vitro kinase assays were performed for selected kinases. These assays were performed in the presence of compound 14 in a dose-response manner to identify the IC50 value for compound 14 for each of these individual kinases. […] Of the remaining kinases, those kinases which IC50 value was less than what was identified from ULK2 are highlighted in brown.
Kinase inhibitor specificity profiling assays were first carried out using DiscoveRx KINOMEscan competition binding assay against a panel of 456 kinases (www dot discoverx dot corn) using 1 μM compound 14.
We next examined the specificity of compound 14 using the DiscoveRx KINOMEscan panel of 456 purified human kinases and subsequent competition binding assay.

WT ULK2 = WT ULK2 (Homo sapiens (Human), UniProt Q8IYT8); assay: in vitro kinase assay, WT ULK2, MBP substrate, radiolabeled ATP; assay type: biochemical; conditions: 10-μM MBP, 30-μM γ-32P-ATP; triplicate, ten-dose, 3-fold serial dilution from 1 μM
WT ULK2, sequence (Q8IYT8 whole entry): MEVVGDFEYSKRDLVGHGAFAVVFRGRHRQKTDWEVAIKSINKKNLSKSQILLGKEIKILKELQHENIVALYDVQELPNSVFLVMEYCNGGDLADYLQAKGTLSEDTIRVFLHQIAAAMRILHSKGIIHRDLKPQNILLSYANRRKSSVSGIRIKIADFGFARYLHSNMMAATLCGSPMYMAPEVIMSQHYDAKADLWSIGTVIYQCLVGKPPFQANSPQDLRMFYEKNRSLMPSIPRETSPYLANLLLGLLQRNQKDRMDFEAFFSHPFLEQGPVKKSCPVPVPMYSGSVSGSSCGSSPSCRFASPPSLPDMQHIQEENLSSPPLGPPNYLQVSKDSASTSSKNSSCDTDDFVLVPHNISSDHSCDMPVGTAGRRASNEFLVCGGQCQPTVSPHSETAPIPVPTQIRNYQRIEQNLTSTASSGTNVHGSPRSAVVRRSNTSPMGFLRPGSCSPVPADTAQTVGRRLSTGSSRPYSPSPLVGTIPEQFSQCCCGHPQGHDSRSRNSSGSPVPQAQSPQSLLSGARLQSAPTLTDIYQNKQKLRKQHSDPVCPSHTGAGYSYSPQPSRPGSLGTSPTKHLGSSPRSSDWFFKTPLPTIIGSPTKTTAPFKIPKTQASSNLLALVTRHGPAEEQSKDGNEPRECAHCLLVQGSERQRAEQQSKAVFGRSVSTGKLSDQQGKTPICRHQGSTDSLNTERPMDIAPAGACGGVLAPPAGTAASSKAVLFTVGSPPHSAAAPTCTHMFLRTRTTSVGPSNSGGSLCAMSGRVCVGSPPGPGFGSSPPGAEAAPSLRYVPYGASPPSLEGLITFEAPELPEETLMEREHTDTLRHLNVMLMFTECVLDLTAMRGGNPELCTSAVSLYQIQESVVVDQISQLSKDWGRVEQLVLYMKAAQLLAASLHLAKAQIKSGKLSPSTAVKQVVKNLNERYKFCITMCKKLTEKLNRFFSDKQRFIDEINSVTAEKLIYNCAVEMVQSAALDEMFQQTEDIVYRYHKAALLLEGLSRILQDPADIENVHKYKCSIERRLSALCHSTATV
Method: WT ULK1 (left) and WT ULK2 (right) were assayed using 10-μM MBP in the presence of 30-μM radiolabeled γ-^32P-ATP.
To further examine how ULK1 regulates autophagy, we sought to identify small molecule ATP competitive kinase inhibitors of ULK1. Screening a library of chemical compounds for inhibitors of ULK1 kinase activity in vitro, we identified a lead compound that was further elaborated through a medicinal chemistry effort to produce compound 14. […] To further characterize the ability of compound 14 and related derivatives to inhibit ULK1 in cells, we tested the ability of these compounds to inhibit the phosphorylation of Vps34 Ser249 when epitope-tagged Vps34 was co-expressed in HEK293T cells with a wild-type ULK1 cDNA. Screening 40 compounds, we found compound 14 inhibited P-Vps34 on overexpressed Vps34 when used at ˜5 μM (FIG. 7B). We next examined the sensitivity of phosphorylation of Vps34 Serine 249 versus Beclin Serine 15 to two structurally distinct ULK1 inhibitors, when cDNAs bearing each were introduced into HEK293T cells. […] (FIG. 11A).

[1] = system: murine Kras p53 lung carcinoma cells; assay: AnnexinV apoptosis in Kras p53 lung carcinoma cells; assay type: cell-based; conditions: selectively in the nutrient-starved state
Method: For flow cytometry analysis, cells were collected at the appropriate time point, washed once in PBS, trypsinized and pelleted. For Annexin V staining, cells were washed in 1× Annexin V buffer and treated as described by the Annexin V staining protocol (BD Pharmingen, San Diego, Calif.). Briefly, cells were resuspended in Annexin V buffer to a concentration of one million per mL, 100,000 cells were then stained with 5 μL of phycoerythrin (PE)-conjugated Annexin V antibody (BD Pharmingen, San Diego, Calif.) and 5 μL of 7-amino-actinomycin D (7AAD) and then incubated at room temperature for 15 minutes. 400 μL of Annexin V buffer was then added to each sample with gentle mixing. Stained cells were analyzed using a FACScan flow cytometer (Becton Dickinson, San Jose, Calif.). Flow cytometry data was analyzed using FlowJo 8.6 software (Tree Star Inc., Ashland, Oreg.).
There has been great interest in the role of autophagy in the survival of tumor cells, particular tumor cells faced with metabolic stress from chemotherapies or targeted therapeutics. We next examined whether compound 14 would promote apoptosis in tumor cells similar to the MEFs, selectively under conditions in which autophagy is actively engaged. […]

[2] = panel of 456 kinases, tested at 10 μM as printed (method says 1 μM)

CNC(=O)c1ccccc1Nc1nc(Nc2cc(OC)c(OC)c(OC)c2)ncc1Br [compound 14, 2-(5-bromo-2-(3,4,5-trimethoxyphenylamino)pyrimidin-4-ylamino)-N-methylbenzamide]
EBSS and mTOR-inhibitor induced mobility shift in Beclin1 and Atg13 (endogenous ULK1): inhibited
S(35) selectivity index (panel of 456 kinases; (number of non-mutant kinases with % Ctrl <35)/(number of non-mutant kinases tested)): 0.123
number of kinases inhibited >90% (panel of 456 kinases; [2]): 19
number of kinases inhibited >95% (panel of 456 kinases; [2]): 8
IC50 (WT ULK2): 0.711 µM
apoptosis (AnnexinV+ cells) [1]: promoted apoptosis
